Assay results taken from patent EP3705117A1, “MELATONIN HAVING IMPROVED WATER SOLUBILITY, ITS PREPARATION AND USES THEREOF” (Tradichem Industrial Services, S.L., priority 2019, dated 2020).

Format: physicochemical
Conditions: for melatonin available in the solution / solubilized: 7 min, 0.2 mg/mL
Method: The water solubility of non-compacted melatonin (starting material used for compaction in Example 1) and the solubility of the compacted melatonin prepared in Example 1 were compared.
Three samples of 10 mg each of non-compacted melatonin and three samples of 10 mg each of compacted melatonin were introduced in separate beakers and tap water at 22 °C was added to each beaker to a volume of 10, 25 or 50 ml (assays A, B and C, respectively). Each tested mixture was sonicated for 5 minutes and subsequently subjected to magnetic stirring at 200 rpm for 2 more minutes.

With COc1ccc2[nH]cc(CCNC(C)=O)c2c1 [Non-compacted melatonin, N-[2-(5-methoxy-1H-indol-3-yl)ethyl)acetamide] the “Solubility test, assay A (10 mg / 10 ml)” value was “(partially dissolved)”, the “Solubility test, assay B (10 mg / 25 ml)” value was “(partially dissolved)” and the “melatonin available in the solution / solubilized” value was 79%. For the same compound, the “melatonin remained as solid, not dissolved” value (HPLC analysis, assay C, 10 mg in 50 ml tap water at 22 °C) was 21%.
In the case of COc1ccc2[nH]cc(CCNC(C)=O)c2c1 [Compacted-melatonin, N-[2-(5-methoxy-1H-indol-3-yl)ethyl)acetamide], the “Solubility test, assay A (10 mg / 10 ml)” value is reported as “(partially dissolved)”, the “Solubility test, assay B (10 mg / 25 ml)” value is reported as “(partially dissolved)” and the “melatonin available in the solution / solubilized” value is reported as 100%. For the same compound, the “dissolution rate compared with non-compacted melatonin” value (ocular inspection, in each of assays A, B and C (10 mg in 10, 25 or 50 ml water)) was “higher dissolution rate”.
